{"source": "patent US4521413A", "about": "“Cephem compounds” (Fujisawa Pharmaceutical Co., Ltd., priority 1981, dated 1985)", "key": {"B. subtilis ATCC 6633": {"system": "B. subtilis ATCC 6633", "assay": "Minimal inhibitory concentration (MIC), agar streak test on heart infusion agar", "type": "cell-based", "conditions": "Bacillus subtilis, ATCC6633, 37° C. for 20 hours, 10^8 viable cells per ml", "description": "(§1) One loopful of an overnight culture of each test strain in Trypticase-soy broth (10^8 viable cells per ml.) was streaked on heart infusion agar (HI-agar) containing graded concentrations of antibiotics, and the minimal inhibitory concentration (MIC) was expressed in terms of μg/ml after incubation at 37° C. for 20 hours."}, "S. marcescens 35": {"system": "S. marcescens 35", "assay": "Minimal inhibitory concentration (MIC), agar streak test on heart infusion agar", "type": "cell-based", "conditions": "Serratia marcescens, 37° C. for 20 hours, 10^8 viable cells per ml", "description": "as §1"}}}
{"compound": "CCO/N=C(\\C(=O)NC1C(=O)N2C(C(=O)[O-])=C(C[n+]3cccc(N(C)C)c3)CSC12)c1nsc(N)n1", "note": "(stereo not drawn) [Test Compound (2), 7-[2-Ethoxyimino-2-(5-amino-1,2,4-thiadiazol-3-yl)acetamido]-3-(3-dimethylamino-1-pyridiniomethyl)-3-cephem-4-carboxylate (syn isomer)]", "values": [{"measurement": "MIC", "setting": "B. subtilis ATCC 6633", "result": 0.39, "unit": "µg/mL"}, {"measurement": "MIC", "setting": "S. marcescens 35", "result": 1.56, "unit": "µg/mL"}]}
{"compound": "CCO/N=C(\\C(=O)NC1C(=O)N2C(C(=O)[O-])=C(C[n+]3cccc(NC)c3)CSC12)c1nsc(N)n1", "note": "(stereo not drawn) [Test Compound (1), 7-[2-Ethoxyimino-2-(5-amino-1,2,4,-thiadiazol-3-yl)acetamido]-3-(3-methylamino-1-pyridiniomethyl)-3-cephem-4-carboxylate (syn isomer)]", "values": [{"measurement": "MIC", "setting": "B. subtilis ATCC 6633", "result": 0.78, "unit": "µg/mL"}, {"measurement": "MIC", "setting": "S. marcescens 35", "result": 1.56, "unit": "µg/mL"}]}
{"compound": "CCO/N=C(\\C(=O)NC1C(=O)N2C(C(=O)[O-])=C(C[n+]3cccc(OC)c3)CSC12)c1nsc(N)n1", "note": "(stereo not drawn) [Test Compound (3), 7-[2-Ethoxyimino-2-(5-amino-1,2,4-thiadiazol-3-yl)acetamido]-3-(3-methoxy-1-pyridiniomethyl)-3-cephem-4-carboxylate (syn isomer)]", "values": [{"measurement": "MIC", "setting": "B. subtilis ATCC 6633", "result": 0.78, "unit": "µg/mL"}, {"measurement": "MIC", "setting": "S. marcescens 35", "result": 1.56, "unit": "µg/mL"}]}
